In the supplement of paper PMC11208160:

Test: recombinant UMI read abundance after kanamycin selection (control-corrected) (log10(CPM+1)); higher = more efficient recombination; extreme values may be limits of the assay; sequences stand for … in AGTGCAGAGAAAATCGGCCAGTTTTCTCTGCCTGCAGTCCGCATGCCGTGGGACCCCTTGGGTTCTAACCTGTTGCCTAGATTTATGCAGCGGACTGCCTTTCTCCCAAAGTGATAAACCGG…AGGTTGGTTTCACT; site = the 11-nt donor
How it was run: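 Values, expressed as log10(CPM+1), derive from recombinant UMI counts converted to CPM, averaged across replicates and scaled by control-derived factors. Plating was with IPTG (0.07 mM) plus kanamycin or unselected, two replicates each. The screen pooled donor and donor-binding-loop pairs for the IS621 bridge recombinase in Escherichia coli.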
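Further: IS621 bridge recombinase in Escherichia coli cells against a fixed T5 target plasmid.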

First: TAAAGTCCATGGACCGGTTTTCCCGGTAATCCGTATTTGTG (site TAAAGTCCTAA)
Second: TAAAGTCCATGGACCGGTTTTCCCGGTAATCCGTATTTGTG (site TAAAGTCCTCA)
The “recombinant UMI read abundance (log10)” value of the first is lower: 0.00597 for the first, 0.64 for the second.

“TAAAGTCCATGGACCGGTTTTCCCGGTAATCCGTATTTGTG (site TAAAGTCCTGA)” and “TAAAGTCCATGGACCGGTTTTCCCGGTAATCCGTATTTGTG (site TAAAGTCCTTA)” are within 0.2 log units of each other in “recombinant UMI read abundance (log10)” value: 0 for the first, 0.19 for the second.

First: TAAATTTCATGGACCGGTTTTCCCGGTAATCCGTATTTGCC (site TAAATTTCTGG)
Second: TAACAATCATGGACCGGTTTTCCCGGTAATCCGTATTTGTC (site TAACAATCTGA)
The “recombinant UMI read abundance (log10)” value of the first is lower: 0 for the first, 2.03 for the second.

Compared with “TAACCTCCATGGACCGGTTTTCCCGGTAATCCGTATTTGAT (site TAACCTCCTAT)”, “TAACGCACATGGACCGGTTTTCCCGGTAATCCGTATTTGTA (site TAACGCACTTA)” is higher in “recombinant UMI read abundance (log10)” value: 0 for the first, 1.61 for the second.

First: TAACGTTCATGGACCGGTTTTCCCGGTAATCCGTATTTGCA (site TAACGTTCTTG)
Second: TAACTGACATGGACCGGTTTTCCCGGTAATCCGTATTTGAT (site TAACTGACTAT)
The “recombinant UMI read abundance (log10)” value of the first is higher: 1.75 for the first, 1.54 for the second.

First: TAACTGCCATGGACCGGTTTTCCCGGTAATCCGTATTTGTG (site TAACTGCCTCA)
Second: TAACTTACATGGACCGGTTTTCCCGGTAATCCGTATTTGGC (site TAACTTACTGC)
The “recombinant UMI read abundance (log10)” value of the first is lower: 0.00877 for the first, 1.32 for the second.

Compared with “TAAGAATCATGGACCGGTTTTCCCGGTAATCCGTATTTGCG (site TAAGAATCTCG)”, “TAAGAATCATGGACCGGTTTTCCCGGTAATCCGTATTTGCG (site TACGAATCTCG)” is lower in “recombinant UMI read abundance (log10)” value: 2.9 for the first, 1.95 for the second.

Compared with “TAAGAATCATGGACCGGTTTTCCCGGTAATCCGTATTTGCG (site TAGGAATCTCG)”, “TAAGAATCATGGACCGGTTTTCCCGGTAATCCGTATTTGCG (site TATGAATCTCG)” is lower in “recombinant UMI read abundance (log10)” value: 2.51 for the first, 1.97 for the second.

First: TAAGACTCATGGACCGGTTTTCCCGGTAATCCGTATTTGTC (site TAAGACTCTGA)
Second: TAAGCCGCATGGACCGGTTTTCCCGGTAATCCGTATTTGCA (site GGGTTGCCTGA)
The “recombinant UMI read abundance (log10)” value of the first is higher: 2.64 for the first, 0 for the second.

Compared with “TAAGCTGCATGGACCGGTTTTCCCGGTAATCCGTATTTGAG (site TAAGCTGCTCT)”, “TAAGCTGCATGGACCGGTTTTCCCGGTAATCCGTATTTGCC (site TAAGCTGCTGG)” is higher in “recombinant UMI read abundance (log10)” value: 1.32 for the first, 1.94 for the second.

Going from “TAAGGTACATGGACCGGTTTTCCCGGTAATCCGTATTTGTA (site TAAGGTACTTA)” to “TAAGTTGCATGGACCGGTTTTCCCGGTAATCCGTATTTGTG (site TAAGTTGCTCA)”, the “recombinant UMI read abundance (log10)” value falls from 2.09 to 1.4.

Going from “TAATAGTCATGGACCGGTTTTCCCGGTAATCCGTATTTGCG (site TAATAGTCTCG)” to “TAATCACCATGGACCGGTTTTCCCGGTAATCCGTATTTGAG (site TAATCACCTCT)”, the “recombinant UMI read abundance (log10)” value falls from 3.15 to 0.0222.

“TAATGACCATGGACCGGTTTTCCCGGTAATCCGTATTTGCC (site TAATGACCTGG)” and “TAATGACCATGGACCGGTTTTCCCGGTAATCCGTATTTGGG (site TAATGAACTCC)” are within 0.2 log units of each other in “recombinant UMI read abundance (log10)” value: 0 for the first, 0.00176 for the second.

“TAATGACCATGGACCGGTTTTCCCGGTAATCCGTATTTGGG (site TAATGACCTCC)” and “TAATGACCATGGACCGGTTTTCCCGGTAATCCGTATTTGGG (site TAATGAGCTCC)” are within 0.2 log units of each other in “recombinant UMI read abundance (log10)” value: 0.00316 for the first, 0.0136 for the second.

First: TAATGACCATGGACCGGTTTTCCCGGTAATCCGTATTTGGG (site TAATGATCTCC)
Second: TAATGAGCATGGACCGGTTTTCCCGGTAATCCGTATTTGTG (site TAATGAGCTCA)
The “recombinant UMI read abundance (log10)” value of the first is lower: 0.00372 for the first, 1.16 for the second.

Compared with “TAATGAGCATGGACCGGTTTTCCCGGTAATCCGTATTTGTG (site TAATGAGCTCC)”, “TAATGAGCATGGACCGGTTTTCCCGGTAATCCGTATTTGTG (site TAATGAGCTCG)” is higher in “recombinant UMI read abundance (log10)” value: 0.00287 for the first, 1.54 for the second.

“TAATGAGCATGGACCGGTTTTCCCGGTAATCCGTATTTGTG (site TAATGAGCTCT)” and “TAATGTGCATGGACCGGTTTTCCCGGTAATCCGTATTTGGG (site TAATGAGCTCC)” are within 0.2 log units of each other in “recombinant UMI read abundance (log10)” value: 0.133 for the first, 0.0156 for the second.

“TAATGTGCATGGACCGGTTTTCCCGGTAATCCGTATTTGGG (site TAATGCGCTCC)” and “TAATGTGCATGGACCGGTTTTCCCGGTAATCCGTATTTGGG (site TAATGGGCTCC)” are within 0.2 log units of each other in “recombinant UMI read abundance (log10)” value: 0.00475 for the first, 0.00856 for the second.

Compared with “TAATGTGCATGGACCGGTTTTCCCGGTAATCCGTATTTGGG (site TAATGTGCTCC)”, “TAATTGACATGGACCGGTTTTCCCGGTAATCCGTATTTGCT (site TAATTGACTAG)” is higher in “recombinant UMI read abundance (log10)” value: 0.0867 for the first, 2.35 for the second.

Going from “TAATTGACATGGACCGGTTTTCCCGGTAATCCGTATTTGCT (site TACTTGACTAG)” to “TAATTGACATGGACCGGTTTTCCCGGTAATCCGTATTTGCT (site TAGTTGACTAG)”, the “recombinant UMI read abundance (log10)” value rises from 1.17 to 1.39.

Going from “TAATTGACATGGACCGGTTTTCCCGGTAATCCGTATTTGCT (site TATTTGACTAG)” to “TACAACACATGGACCGGTTTTCCCGGTAATCCGTATTTGTG (site TACAACACTCA)”, the “recombinant UMI read abundance (log10)” value falls from 0.698 to 0.148.

Going from “TACAATACATGGACCGGTTTTCCCGGTAATCCGTATTTGCA (site TAAAATACTTG)” to “TACAATACATGGACCGGTTTTCCCGGTAATCCGTATTTGCA (site TACAATACTTG)”, the “recombinant UMI read abundance (log10)” value rises from 0 to 1.18.

“TACAATACATGGACCGGTTTTCCCGGTAATCCGTATTTGCA (site TAGAATACTTG)” and “TACAATACATGGACCGGTTTTCCCGGTAATCCGTATTTGCA (site TATAATACTTG)” are the same in “recombinant UMI read abundance (log10)” value: 0 for the first, 0 for the second.

Compared with “TACAATCCATGGACCGGTTTTCCCGGTAATCCGTATTTGAG (site TACAATCCTCT)”, “TACAGACCATGGACCGGTTTTCCCGGTAATCCGTATTTGTC (site TACAGACCTGA)” is lower in “recombinant UMI read abundance (log10)” value: 0.531 for the first, 0 for the second.

“TACAGCGCATGGACCGGTTTTCCCGGTAATCCGTATTTGCG (site TACAGCGCTCG)” and “TACAGGCCATGGACCGGTTTTCCCGGTAATCCGTATTTGCT (site TACAGGCCTAG)” are within 0.2 log units of each other in “recombinant UMI read abundance (log10)” value: 0.00572 for the first, 0.00356 for the second.

Going from “TACCACCCATGGACCGGTTTTCCCGGTAATCCGTATTTGCT (site TACCACCCTAG)” to “TACCCGCCATGGACCGGTTTTCCCGGTAATCCGTATTTGCG (site TACCCGCCTCG)”, the “recombinant UMI read abundance (log10)” value falls from 0.83 to 0.26.

First: TACCCTTCATGGACCGGTTTTCCCGGTAATCCGTATTTGGT (site TAACCTTCTAC)
Second: TACCCTTCATGGACCGGTTTTCCCGGTAATCCGTATTTGGT (site TACCCTTCTAC)
The “recombinant UMI read abundance (log10)” value of the first is lower: 0.00354 for the first, 0.56 for the second.

“TACCCTTCATGGACCGGTTTTCCCGGTAATCCGTATTTGGT (site TAGCCTTCTAC)” and “TACCCTTCATGGACCGGTTTTCCCGGTAATCCGTATTTGGT (site TATCCTTCTAC)” are within 0.2 log units of each other in “recombinant UMI read abundance (log10)” value: 0.0115 for the first, 0.00909 for the second.

Compared with “TACCTCTCATGGACCGGTTTTCCCGGTAATCCGTATTTGAC (site TACCTCTCTGT)”, “TACCTGACATGGACCGGTTTTCCCGGTAATCCGTATTTGCT (site TACATGACTAG)” is lower in “recombinant UMI read abundance (log10)” value: 0.216 for the first, 0 for the second.

Compared with “TACCTGACATGGACCGGTTTTCCCGGTAATCCGTATTTGCT (site TACCTGACTAG)”, “TACCTGACATGGACCGGTTTTCCCGGTAATCCGTATTTGCT (site TACGTGACTAG)” is lower in “recombinant UMI read abundance (log10)” value: 0.461 for the first, 0 for the second.

“TACCTGACATGGACCGGTTTTCCCGGTAATCCGTATTTGCT (site TACTTGACTAG)” and “TACCTTCCATGGACCGGTTTTCCCGGTAATCCGTATTTGGC (site TACCTTCCTGC)” are the same in “recombinant UMI read abundance (log10)” value: 0 for the first, 0 for the second.

Compared with “TACGATCCATGGACCGGTTTTCCCGGTAATCCGTATTTGCT (site TACGATCCTAG)”, “TACGGAGCATGGACCGGTTTTCCCGGTAATCCGTATTTGCC (site AGTCTTACTAA)” is lower in “recombinant UMI read abundance (log10)” value: 1.96 for the first, 0 for the second.

“TACGGCCCATGGACCGGTTTTCCCGGTAATCCGTATTTGTT (site AACGGCCCTAA)” and “TACGGCCCATGGACCGGTTTTCCCGGTAATCCGTATTTGTT (site CACGGCCCTAA)” are within 0.2 log units of each other in “recombinant UMI read abundance (log10)” value: 0.0182 for the first, 0.00844 for the second.

“TACGGCCCATGGACCGGTTTTCCCGGTAATCCGTATTTGTT (site GACGGCCCTAA)” and “TACGGCCCATGGACCGGTTTTCCCGGTAATCCGTATTTGTT (site TACGGCCCTAA)” are within 0.2 log units of each other in “recombinant UMI read abundance (log10)” value: 0.00736 for the first, 0.00191 for the second.

Going from “TACGGCGCATGGACCGGTTTTCCCGGTAATCCGTATTTGCC (site TACGGCGCTGG)” to “TACGTGACATGGACCGGTTTTCCCGGTAATCCGTATTTGAC (site TACGTGACTGT)”, the “recombinant UMI read abundance (log10)” value falls from 2.01 to 1.74.

“TACTCCTCATGGACCGGTTTTCCCGGTAATCCGTATTTGGG (site TACTCCTCTCC)” and “TACTCTCCATGGACCGGTTTTCCCGGTAATCCGTATTTGTG (site TACTCTCCTCA)” are within 0.2 log units of each other in “recombinant UMI read abundance (log10)” value: 0.0269 for the first, 0.011 for the second.

Going from “TACTGCACATGGACCGGTTTTCCCGGTAATCCGTATTTGGG (site TACTGCACTCC)” to “TACTTAACATGGACCGGTTTTCCCGGTAATCCGTATTTGCT (site TACTTAACTAG)”, the “recombinant UMI read abundance (log10)” value rises from 0.0129 to 0.345.

With “TACTTAACATGGACCGGTTTTCCCGGTAATCCGTATTTGCT (site TACTTCACTAG)” the “recombinant UMI read abundance (log10)” value was 0.00655.
